Measured values reported in patent US6344184B1, “Oral composition for inhibiting oral malodor” (priority 1999, dated 2002).
Where two headings read alike, the source gives them in different places.

System: VSCs (hydrogen sulfide, methyl mercaptan) formed by bacteria in freshly collected human saliva
Test: In vitro VSC inhibition in incubated human saliva, gas chromatography of gas phase
Format: cell-based
Description: In vitro experiments were performed to test the VSC-inhibiting potential of different combinations of zinc acetate and cationic antibacterial agents.
To a 1 ml sample of freshly collected human saliva in a test tube was added 10 microliter of the solutions (mouthrinses) described below. The test tubes were closed with a stopper and incubated overnight at 37° C. A control tube which contained only saliva served as a control. It is well known that large amounts of VSCs are formed in a test tube during the latter conditions, the bacteria breaking down the salivary proteins and forming VSCs from cysteine and methionine. The VSCs in the gas phase above the incubated saliva, were measured by gas chromatography in a Shimadzu 14B instrument, and hydrogen sulfide, methyl mercaptan and di-methyl sulfide were used as standard.
The solutions to be tested were: 0.3% zinc acetate, 0.025% chlorhexidine, 0.025% cetylpyridinium chloride and 0.025% benzalkonium chlorides. Subsequently the zinc acetate was combined with each of the individual antibacterial agents. All the experiments described In this paragraph were performed on the same day under Identical conditions. The concentrations chosen were based on experience from pilot experiments with different concentrations of the zinc and antibacterial agents.
An examination was conducted to investigate whether the effect of the combinations of zinc acetate and the individual antibacterial agents represented a synergistic effect. This was performed according to the method of Behrenbaum (J.lnf. Dis. 137:122-130, 1978). The fractional inhibitory concentrations (the FIC index) was calculated based on the amounts (AUC) of hydrogen sulfide and methyl mercaptan formed under different conditions. […] The FIC index was calculated from the following formula: (A+B)/A+(A+B)/B, where A+B represents the combinations of zinc and antibacterial agent, whereas A and B alone represent the individual agents.
If the FIC Index is below 1 (<1) a synergistic effect is established. If the index is like 1 (=1) an additional effect between A and B is seen, whereas an index above 1 (>1) indicates an antagonistic effect.

[1] = 10 microliter solution added to 1 ml human saliva, incubated overnight at 37° C, low AUC = strong inhibitor, control >27 mill
[2] = 10 microliter solution added to 1 ml human saliva, incubated overnight at 37° C, low AUC = strong inhibitor, control >41 mill

Compound	HS (hydrogen sulfide) AUC value (amount of VSC) [1]	MM (methyl mercaptan) AUC value (amount of VSC) [2]	Effect on HS and MM in saliva, in words (incubated human saliva, versus control)	HS (hydrogen sulfide) AUC value (amount of VSC) [mill]	MM (methyl mercaptan) AUC value (amount of VSC) [mill]	Effect on HS and MM in saliva, in words
CC(=O)O.CC(=O)O.NC(=N\CCCCCC/N=C(N)/N=C(\N)Nc1ccc(Cl)cc1)/N=C(\N)Nc1ccc(Cl)cc1 [CHX 0.025%, chlorhexidine acetate]	443 000 AUC	355 000 AUC	clear effect on both HS and MM in the same order of magnitude as zinc acetate			
benzalkonium chloride [Benzalk 0.025%]	1.4 mill	1.7 mill				
CCCCCCCCCCCCCCCC[n+]1ccccc1 [CPC 0.025%, cethylpyridinium chloride]				5.2	6.89	
CC(=O)[O-].CC(=O)[O-].[Zn+2] [Zinc Ac. 0.3%, zinc acetate]	150 000 AUC	4 mill				reduced the amount of HS much more than the amount of MM
